Assay type in all cases: in vivo, Sprague-Dawley (SD) rats
Data set [1] in a line: Pharmacokinetics in rat plasma after single subcutaneous administration (LC-MS/MS, non-compartmental analysis). To be noted: for CLz (total body clearance for extravascular administration) / V (volume of distribution) / AUC(0-t) / Cmax / Tmax / MRT / half-life: LC-MS/MS, NCA, n = 5; for AUC(0-t) / Cmax / Tmax / MRT / half-life: Sprague-Dawley, sc; for MRT: read-out: MRT (mean residence time); for half-life: read-out: T1/2 (terminal half-life) (converted). How it is done:
A Shimadzu LC-30A UHPLC system (Shimadzu, Kyoto, Japan) coupled with a Sciex QTRAP-5500 tandem mass spectrometer (Sciex, Framingham, MA, USA) was utilized. The chromatography was separated on a PHENOMENEX Kinetex®XB-C18 column (Phenomenex, Torrance, CA, USA) (100 mm × 2.1 mm, 2.6 μm) at 40 °C. The mobile phases were 2 mM of an ammonium acetate solution with 0.1% formic acid as the aqueous phase and acetonitrile solution with 0.1% formic acid as the organic phase. The gradient elution condition settings are detailed in Table S1. The mass spectrometer was operated in positive ESI mode with the following parameters: nebulizer gas (45 psi), heater gas (55 psi), curtain gas (40 psi), ion-spray voltage 4500 V, and ion source temperature of 450 °C.
An aliquot of 40 μL of rat plasma samples, 50 μL of polymyxin B1 (IS, 20 mg/L), and 50 μL of 6% formic acid in water were mixed. Then, 300 μL of acetonitrile was added to the mixture to precipitate proteins and centrifuged at 4 °C at 13,800 g for 10 min. A 100 μL aliquot of the supernatant was transferred and mixed with 150 μL of 6% formic acid water, and 5 μL was injected into the LC-MS/MS system.
A total of 20 wild-type male Sprague-Dawley (SD) rats weighing 280 g ± 20 g were randomly divided into 4 groups. Water and food were adequately provided. Four groups were given MRX-8 at doses of 2 mg/kg, 4 mg/kg, 6 mg/kg, and 8 mg/kg of body weight (dissolved in normal saline). 0.5 mL of blood samples were obtained from the jugular vein (without anesthesia) before and 0.25, 0.5, 1, 2, 4, 6, 8, and 24 h after dosing. Blood samples were collected into tubes with EDTA-K2 anticoagulant and centrifuged at 4 °C at 3500 g for 10 min. The plasma was collected and stored in a −70 °C refrigerator until analysis.
In the meantime, 10 additional SD rats were divided into two groups (5 rats each) and administered PMB at 4 mg/kg and 8 mg/kg, separately. Blood samples were obtained before and 0.25, 0.5, 1, 2, 4, 6, 8, 10, 12, and 24 h after dosing. The drug administration and sample collection methods were consistent with those used for MRX-8.
MRX-8 and MRX-8039 concentrations in plasma were measured, and mean concentration–time curves were plotted. […] After the administration, concentrations below the LLOQ were discarded.

In data set [2] the test system is rats. Nature of the data set: Creatinine in rat plasma (nephrotoxicity), ADVIA Chemistry XPT analyzer. The following applies: for creatinine concentration: SD rats. The protocol: (§1) Rats’ plasma and urine were collected continuously for 24 h after being administered subcutaneously. The plasma collected for the PK assay was split for creatinine and BUN concentrations, whereas a separate experiment was conducted to measure the biomarkers. The concentrations of creatinine and BUN in rat plasma were quantified utilizing the ADVIA Chemistry XPT analyzer (Siemens Healthcare, Munich, Germany). Rat plasma samples, along with quality control samples, were prepared and processed with dedicated reagent cartridges.

The subject of data set [3] is rats. The experiment in a line: Blood urea nitrogen (BUN) in rat plasma (nephrotoxicity), ADVIA Chemistry XPT analyzer. To be noted: for BUN level: SD rats. The protocol:
as §1

Data set [4] concerns rats. Nature of the data set: Plasma NGAL kidney injury biomarker, ELISA. The following applies: 24 h after single s.c. 8 mg/kg, saline group 53.03 ± 2.25. How it is done: as §1
(§2) Enzyme-linked immunosorbent assay kits specific for KIM-1 (Cell Signaling Technology, Danvers, MA, USA), NGAL (Sangon Biotech, Shanghai, China), and TIMP-1 (Sangon Biotech, Shanghai, China) were utilized for analysis.
In general terms: An ELISA detects its analyte on a solid surface through an enzyme-linked reagent.

Data set [5] has as its system rats. The experiment in a line: Urinary NGAL kidney injury biomarker, ELISA. The following applies: saline group 45.22 ± 1.46. The protocol: as §1, §2
Data set [6] deals with rats. The experiment in a line: Urinary KIM-1 kidney injury biomarker, ELISA. The following applies: 24 h after single s.c. 4 and 8 mg/kg, high variability within each group. The protocol: as §1, §2
The test system of data set [7] is rats. The experiment in a line: Urinary TIMP-1 kidney injury biomarker, ELISA. The following applies: for urinary TIMP-1 level: saline group 2.89 ± 1.80. How it is done:
as §1, §2

Another data set has as its system rat kidney tissues. The experiment in a line: Kidney histology, PAS staining and semi-quantitative scores (SQS). The following applies: PAS staining. How it is done: The kidney tissues were taken 24 h after the PK sample collection. The tissues were embedded in paraffin, sliced, dewaxed into water, and washed for 5 min. […] The pathology scores refer to the paper published by Jumana et al.. Briefly, the renal histological assessment included three grades of tubular damage. Scores were assigned to grades: grade 1 = 1, grade 2 = 4, and grade 3 = 10. Kidney involvement was assessed based on the percentage of affected slices: <1% = 0, 1 to <5% = 1, 5 to <10% = 2, 10 to <20% = 3, 20 to <30% = 4, 30 to <40% = 5, and ≥40% = 6. The overall score was calculated by multiplying the percentage score with the grade score. Finally, SQS for renal histological changes was assigned: SQS 0 = no significant change (overall score: <1); SQS +1 = mild damage (overall score: 1 to <15); SQS +2 = mild-to-moderate damage (overall score: 15 to <30); SQS +3 = moderate damage (overall score: 30 to <45); SQS +4 = moderate-to-severe damage (overall score: 45 to <60); and SQS +5 = severe damage (overall score: 60). The samples in this experiment were examined by pathologist Shaojun Liu, who had no knowledge of the grouping.
A one-way ANOVA was performed to evaluate (1) the PK parameters of T1/2, CLZ, V, and MRT at the dosages of 4, 6, and 8 mg/kg; (2) the concentrations of kidney injury biomarkers between the saline, MRX-8, and PMB groups. […]

[8] abbreviates: SD rats, single s.c. dose 4 mg/kg, plasma.
[9] abbreviates: SD rats, single s.c. dose 8 mg/kg, plasma.
Where [10] appears, read: rat, in vivo, SD rats, single s.c. dose 4 mg/kg, plasma.
Where [11] appears, read: rat, in vivo, SD rats, single s.c. dose 8 mg/kg, plasma.

Where two headings read alike, the source gives them in different places. Positions of bridges follow the written chain, without caps; N, C: chain ends. Non-standard residues stand in square brackets, D forms with d. Residues, ends and D or L forms follow the SMILES beside them. *: point of attachment. Propanoyl(3-OH) = O=C(CCO)*; X1 = CC[C@H](C)CCCCC(=O)*; Dab = NCC[C@H](N)C(=O)O

Turning to `CC(C)C[C@@H]1NC(=O)[C@@H](Cc2ccccc2)NC(=O)[C@H](CCN)NC(=O)[C@@H](NC(=O)[C@H](CCN)NC(=O)[C@@H](NC(=O)[C@H](CCN)NC(=O)CCO)[C@@H](C)O)CCNC(=O)[C@H]([C@@H](C)O)NC(=O)[C@H](CCN)NC(=O)[C@H](CCN)NC1=O` [MRX-8039] ({Propanoyl(3-OH)}-[Dab]T[Dab][Dab][Dab][dF]L[Dab][Dab]T; lactam 4-C), the “Tmax delay of MRX-8039 relative to MRX-8” value in data set [1] (rat, in vivo) is “approximately 1.5 h”.
Usually Cmax stands for the peak of the concentration-time curve. The Tmax is the time from dosing to the highest level. In general, MRT refers to a mean duration of stay, worked out from the concentration-time curve. As for `CC[C@H](C)CCCCC(=O)N[C@@H](CCN)C(=O)N[C@H](C(=O)N[C@@H](CCN)C(=O)N[C@H]1CCNC(=O)[C@H]([C@@H](C)O)NC(=O)[C@H](CCN)NC(=O)[C@H](CCN)NC(=O)[C@H](CC(C)C)NC(=O)[C@@H](Cc2ccccc2)NC(=O)[C@H](CCN)NC1=O)[C@@H](C)O` [PMB, polymyxin B] (X1-[Dab]T[Dab][Dab][Dab][dF]L[Dab][Dab]T; lactam 4-C), the “Tmax (absorption, as read from Figure 3)” value in data set [1] (SD rats, s.c. administration, plasma, range over dose groups) is recorded as 4~6 h. Besides, the entries for the “CLz (total body clearance for extravascular administration)” value in data set [1] (setting [8]) and in data set [1] (setting [9]) were 4 ± 1 mL/min/kg and 4.17 ± 0.33 mL/min/kg, respectively. Moreover, the results for the “V (volume of distribution)” value in data set [1] (setting [8]) and in data set [1] (setting [9]) were 1.52 ± 0.27 L/kg and 1.49 ± 0.31 L/kg, respectively. Besides, the AUC(0-t) in data set [1] (rat, in vivo, 4 mg/kg, SD rats, single s.c. dose 4 mg/kg, plasma, read-out: AUC0–8 h) amounted to 9550 ± 2540 ng·h/mL; in data set [1] (rat, in vivo, 4 mg/kg, SD rats, single s.c. dose 4 mg/kg, plasma, read-out: AUC0–24 h), 17100 ± 3900 ng·h/mL; in data set [1] (rat, in vivo, 8 mg/kg, SD rats, single s.c. dose 8 mg/kg, plasma, read-out: AUC0–8 h) it was 17900 ± 3050 ng·h/mL; in data set [1] (rat, in vivo, 8 mg/kg, SD rats, single s.c. dose 8 mg/kg, plasma, read-out: AUC0–24 h), 31200 ± 3140 ng·h/mL. The Cmax in data set [1] (setting [10]) was found to be 1770 ± 510 ng/mL; in data set [1] (setting [11]), 3150 ± 440 ng/mL. The values for the Tmax in data set [1] (setting [10]) and in data set [1] (setting [11]) were 4.8 ± 1.1 h and 6 h, respectively. The MRT in data set [1] (setting [10]) was 8.66 ± 0.7 h; in data set [1] (setting [11]), 8.23 ± 0.71 h. Besides, the half-life was 4.55 ± 0.56 h in data set [1] (setting [10]) and 4.09 ± 0.44 h in data set [1] (setting [11]). The creatinine concentration stood at 103.86 ± 12.66 µmol/L with rats [2] (8 h after single s.c. 4 mg/kg, saline group 21.25 ± 2.22); 85.61 ± 17.27 µmol/L in the data set with rats [2] (8 h after single s.c. 8 mg/kg, saline group 21.25 ± 2.22); 169.79 ± 61.93 µmol/L in the data set on rats [2] (24 h after single s.c. 4 mg/kg, saline group 22.5 ± 2.52); 110.81 ± 67.3 µmol/L in the data set on rats [2] (24 h after single s.c. 8 mg/kg, saline group 22.5 ± 2.52). Also, the “change of blood creatinine levels compared to the saline group” value with rats [2] (8 h and 24 h after single s.c. dose (MRX-8 2 to 8 mg/kg; PMB 4 and 8 mg/kg), one-way ANOVA) is listed as “significant increase”. The BUN level with rats [3] (8 h after single s.c. 4 mg/kg, saline group 5.52 ± 0.56) is recorded as 19.58 ± 3.05 mmol/L; in the data set with rats [3] (8 h after single s.c. 8 mg/kg), 15.36 ± 3.05 mmol/L; with rats [3] (24 h after single s.c. 4 mg/kg) it was 44.3 ± 1.12 mmol/L; with rats [3] (24 h after single s.c. 8 mg/kg) it was 54.85 ± 11.81 mmol/L. Further, in the data set with rats [3] (8 h and 24 h after single s.c. dose (PMB 4 and 8 mg/kg; MRX-8, except significant increase at 4 mg/kg at 8 h)), the “change of BUN levels compared to the saline group” value is “significant increase”. For the same compound, the “NGAL level in plasma” value in the data set with rats [4] worked out at 61.14 ± 2.52 ng/mL. Besides, the “urinary NGAL level” value in the data set on rats [5] (24 h after single s.c. 4 mg/kg) is reported as 50.34 ± 2.70 ng/mL; in the data set with rats [5] (24 h after single s.c. 8 mg/kg), 56.95 ± 6.01 ng/mL. Further, the “change of urine KIM-1 levels compared to the saline group” value in the data set on rats [6] is recorded as “No statistically significant differences”. For the same compound, the “urinary TIMP-1 level” value in the data set on rats [7] (24 h after single s.c. 4 mg/kg) stood at 20.65 ± 12.44 ng/mL; in the data set on rats [7] (24 h after single s.c. 8 mg/kg) it was 20.54 ± 7.82 ng/mL. For the same compound, the “change of urinary TIMP-1 compared to the saline group” value with rats [7] (24 h after single s.c. 4 and 8 mg/kg) is “increased significantly”. The “histological findings in kidney tissues” value in the data set on rat kidney tissues (24 h post single s.c. dose of 8 mg/kg) was “more severe renal damage, including tubular dilation, cellular necrosis, and tubular formation”; with rat kidney tissues (24 h post single s.c. dose, compared to the saline group) it was “mild focal tubular cell shedding and cytoplasmic attenuation”.
